Measured values reported in PMC7382147, “An effective UFLC–MS/MS method used to study pharmacokinetics of major constituents of Fukeqianjin formula in rat plasma” (Chinese Medicine, 2020).
Where two headings read alike, the source gives them in different places.

Assays:
[1] = Pharmacokinetic study in rat plasma after oral administration of FKQJF extract (UFLC–MS/MS); assay type: in vivo, Sprague-Dawley (SD) rats; conditions: for AUC(0-inf) / AUC(0-t) / Cmax / half-life / MRT last / MRT inf / Tmax: oral FKQJF extract, single dose 3.2 g/kg, mean ± SD; for MRT last: read-out: MRT0→t; for MRT inf: read-out: MRT0→∞; for shape of the plasma concentration–time curve / time of first peak of the concentration–time curve / time of second peak of the concentration–time curve: oral FKQJF extract 3.2 g/kg; for time of first peak of the concentration–time curve / time of second peak of the concentration–time curve: post dose
Method: (§1) Aliquots of 100 μL plasma samples were mixed with 10 μL I.S. samples (1 μg/mL, in MeOH), then added with 500 μL ACN, respectively, and vortexed for 5 min, centrifugated at 10,000 rpm for 10 min, the supernatants were transferred into clean vials and dried in a vacuum centrifugal concentrator at 1200 rpm, 37 °C. After that, 100 μL ACN was added and ultrasonic (frequency 40 kHz, power 250 W) extracted for 5 min to dissolve the dry residue, vortexed for 1 min and centrifugated at 10,000 rpm for 5 min, 1 μL of each final supernatant was injected into UFLC–MS/MS for analysis.
An 8050 UFLC–MS/MS system equipped with LC-30A binary pump, a SIL-30AC autosampler, a SPD-M30A PDA detector, a CTO-20AC column oven, and a 8050 triple quadrupole mass spectrometer with an electrospray ionization source (ESI) was applied to detect and quantify FKQJF compounds in plasma samples. Data were acquired and processed with the software LabSolution (Ver. 5.6).
A Kinetex XB-C18 HPLC column (100 × 2.1 mm, 2.6 μm) linked with an equivalent guard column was used for chromatographic separation. The aqueous phase contained 0.2% formic acid was used as mobile phase A, and organic phase ACN as mobile phase B. The gradient elution method using in this program was: 3–5 min, 28–31% B; 5–7 min, 31–34% B; 7–9 min, 34–65% B; 9–10 min, 65–95% B; 10–11.5 min, 95% B. The flow rate of mobile phase, column temperature and autosampler temperature was 0.4 mL/min, 30 °C and 4 °C, respectively. The injection volume of each sample was set as 1 μL. The main MS spectrum parameters were set as follows: the flow rate of drying gas (N2) was 10.0 L/min; the atomized gas was 3.0 L/min and the heating gas flow rate was 10.0 L/min. The main temperatures of interface, desolvation and heat block was 300 °C, 250 °C and 400 °C, respectively. And, the interface and detector voltage were 3 kV and 1.8 kV.
Rats were divided into a blank group and a FKQJF administration group (6 rats for each), and fasted for 24 h. Each rat of the administration group was given FKQJF extract suspension at a single dose of 3.2 g FKQJF/kg body weight through oral administration in parallel. Blood samples (0.25 mL) were gathered from the orbital venous plexus of each rat, with FKQJF group gathered at 14 serial timepoints (6 rats for each) as 0.083 h, 0.16 h, 0.33 h, 0.5 h, 0.75 h, 1.0 h, 1.5 h, 2 h, 3 h, 4 h, 6 h, 8 h, 12 h and 24 h after drug administration. The blood samples were centrifugated at 6000g for 10 min to isolate plasma and stored at − 20 °C for further analysis.
Data were analyzed using the Drug and Statistics (DAS) Software version 2.0 (DAS 2.0, Mathematical Pharmacology Professional Committee of China, Shanghai, China). The non-compartmental mode was applied to obtain the following PK parameters: area under the plasma concentration–time curve from time zero to the time of last quantifiable concentration (AUC0→t) and area under the plasma concentration–time curve to time infinity (AUC0→∞), the elimination half-life (t1/2), mean retention time to last sampling time (MRT0→t) and mean retention time to infinity (MRT0→∞). The maximum plasma concentration (Cmax) and the time to maximum concentration (Tmax) were observed directly from the concentration–time (C–T) curves and measured data. All data are presented as mean ± SD.

[2] = Freeze–thaw stability of QC samples (−20 °C, three times); assay type: physicochemical, rat; conditions: plasma QC, freeze (−20 °C) and thaw three times
Method: as §1
(§2) Six replicates of low, medium and high concentrations of quality control (QC) samples were used to verify the stabilities under different conditions including: place at room temperature for 8 h, freeze (− 20 °C) and thaw for three times, and store at − 20 °C for 20 days.

[3] = Ordinary stability of QC samples (room temperature for 8 h); assay type: physicochemical, rat; conditions: plasma QC, room temperature 8 h
Method: as §1, §2

[4] = Long-term stability of QC samples (−20 °C for 20 days); assay type: physicochemical, rat; conditions: plasma QC
Method: as §1, §2

Row | AUC(0-inf) ([1]; Sprague-Dawley) [ng·h/mL] | AUC(0-t) ([1]; Sprague-Dawley) [ng·h/mL] | Cmax ([1]; Sprague-Dawley) [ng/mL] | half-life ([1]; Sprague-Dawley) [h] | MRT last ([1]; Sprague-Dawley) [h] | MRT inf ([1]; Sprague-Dawley) [h] | Tmax ([1]; Sprague-Dawley, read-out: Tmax) [h] | shape of the plasma concentration–time curve [1] | Freeze–thaw stability Mean ([2]; spiked 50 ng/mL) [%] | Freeze–thaw stability Mean ([2]; spiked 250 ng/mL) [%] | Freeze–thaw stability Mean ([2]; spiked 500 ng/mL) [%] | Ordinary stability Mean ([3]; spiked 50 ng/mL) [%] | Ordinary stability Mean ([3]; spiked 250 ng/mL) [%] | Ordinary stability Mean ([3]; spiked 500 ng/mL) [%] | Long-term stability Mean ([4]; spiked 50 ng/mL) [%] | Long-term stability Mean ([4]; spiked 250 ng/mL) [%] | Long-term stability Mean ([4]; spiked 500 ng/mL) [%] | SMILES | also measured
1 | 505 ± 109 | 344 ± 43.1 | 104 ± 14.9 | 3.89 ± 0.85 | 3.51 ± 0.24 | 7.55 ± 1.93 | 1 ± 0.43 | double-peaks |  |  |  |  |  |  |  |  |  | C=C1CC[C@@H]2[C@](C)(CO[C@@H]3O[C@H](CO)[C@@H](O)[C@H](O)[C@H]3O)CCC[C@@]2(C)[C@@H]1CCC1=CCOC1=O [Analyte 5, neoandrographolide] | time of first peak of the concentration–time curve [1]: 0 to 1 h; time of second peak of the concentration–time curve [1]: 1.5 to 3 h; Freeze–thaw stability Mean ([2]; spiked 60 ng/mL): 109.12%; Freeze–thaw stability Mean ([2]; spiked 300 ng/mL): 80.22%; Freeze–thaw stability Mean ([2]; spiked 600 ng/mL): 113.31%; Ordinary stability Mean ([3]; spiked 60 ng/mL): 81.32%; Ordinary stability Mean ([3]; spiked 300 ng/mL): 103.80%; Ordinary stability Mean ([3]; spiked 600 ng/mL): 94.88%; Long-term stability Mean ([4]; spiked 60 ng/mL): 113.28%; Long-term stability Mean ([4]; spiked 300 ng/mL): 97.44%; Long-term stability Mean ([4]; spiked 600 ng/mL): 82.61%
2 | 194 ± 27.9 | 74.7 ± 8.31 | 10.2 ± 0.58 | 33.6 ± 27.1 | 9.85 ± 0.85 | 48.2 ± 39.8 | 1.83 ± 0.29 | double-peaks |  |  |  |  |  |  |  |  |  | CCC/C=C1\OC(=O)C2=C1CCC=C2 [Analyte 18, Z-ligustilide] | Freeze–thaw stability Mean ([2]; spiked 20 ng/mL): 88.16%; Freeze–thaw stability Mean ([2]; spiked 200 ng/mL): 112.10%; Freeze–thaw stability Mean ([2]; spiked 400 ng/mL): 104.63%; Ordinary stability Mean ([3]; spiked 20 ng/mL): 107.46%; Ordinary stability Mean ([3]; spiked 200 ng/mL): 86.65%; Ordinary stability Mean ([3]; spiked 400 ng/mL): 106.31%; Long-term stability Mean ([4]; spiked 20 ng/mL): 114.56%; Long-term stability Mean ([4]; spiked 200 ng/mL): 86.82%; Long-term stability Mean ([4]; spiked 400 ng/mL): 118.76%
3 | 3110 ± 38.7 | 2970 ± 169 | 477 ± 33.3 | 5.27 ± 2.94 | 6.51 ± 0.66 | 8.09 ± 1.32 | 2.17 ± 0.76 |  | 98.92 | 99.07 | 86.48 | 106.33 | 86.35 | 95.34 | 87.08 | 83.50 | 112.17 | COC(=O)c1ccc(O)cn1 [Analyte 2, 5-hydroxypicolinic acid methyl ester] | 
4 | 489 ± 37.6 | 463 ± 29.5 | 102 ± 18.4 | 2.66 ± 0.69 | 3.67 ± 0.14 | 4.32 ± 0.47 | 2.33 ± 0.58 |  | 84.84 | 92.61 | 90.89 | 93.52 | 84.19 | 109.98 | 81.68 | 86.77 | 93.19 | O=Cc1ccc2n1C[C@]1(C[C@H](O)[C@@H](CO)O1)OC2 [Analyte 3, acortatarin A] | 
5 | 81.1 ± 19.4 | 74.3 ± 17.5 | 47.7 ± 5.92 | 1.2 ± 0.74 | 2.21 ± 0.48 | 3.05 ± 1.01 | 1.42 ± 0.63 | double-peaks |  |  |  |  |  |  |  |  |  | C=C1CC[C@@H]2[C@](C)(CO)[C@H](O)CC[C@@]2(C)[C@@H]1/C=C/C1=CCOC1=O [Analyte 15, 14-deoxy-11,12-didehydro-andrographolide] | time of first peak of the concentration–time curve [1]: 0 to 1 h; time of second peak of the concentration–time curve [1]: 1.5 to 3 h; Freeze–thaw stability Mean ([2]; spiked 60 ng/mL): 114.11%; Freeze–thaw stability Mean ([2]; spiked 300 ng/mL): 105.94%; Freeze–thaw stability Mean ([2]; spiked 600 ng/mL): 118.41%; Ordinary stability Mean ([3]; spiked 60 ng/mL): 89.92%; Ordinary stability Mean ([3]; spiked 300 ng/mL): 119.43%; Ordinary stability Mean ([3]; spiked 600 ng/mL): 82.90%; Long-term stability Mean ([4]; spiked 60 ng/mL): 100.55%; Long-term stability Mean ([4]; spiked 300 ng/mL): 98.43%; Long-term stability Mean ([4]; spiked 600 ng/mL): 88.35%
6 | 206 ± 58.7 | 144 ± 16.5 | 67.7 ± 27.6 | 12.1 ± 9.32 | 6.67 ± 1.42 | 17 ± 8.17 |  |  | 88.34 | 116.86 | 84.71 | 80.39 | 92.68 | 101.11 | 91.66 | 103.10 | 99.51 | O=C1C[C@@H](c2ccc(O)cc2)Oc2cc(O)cc(O)c21 [Analyte 14, naringenin] | Tmax [1]: 2.00 ± 0.00 h

Row | SMILES | AUC(0-inf) ([1]; Sprague-Dawley) [ng·h/mL] | AUC(0-t) ([1]; Sprague-Dawley) [ng·h/mL] | Cmax ([1]; Sprague-Dawley) [ng/mL] | half-life ([1]; Sprague-Dawley) [h] | MRT last ([1]; Sprague-Dawley) [h] | MRT inf ([1]; Sprague-Dawley) [h] | Tmax ([1]; Sprague-Dawley, read-out: Tmax) [h] | shape of the plasma concentration–time curve [1] | Freeze–thaw stability Mean ([2]; spiked 50 ng/mL) [%] | Freeze–thaw stability Mean ([2]; spiked 250 ng/mL) [%] | Freeze–thaw stability Mean ([2]; spiked 500 ng/mL) [%] | Ordinary stability Mean ([3]; spiked 50 ng/mL) [%] | Ordinary stability Mean ([3]; spiked 250 ng/mL) [%] | Ordinary stability Mean ([3]; spiked 500 ng/mL) [%] | Long-term stability Mean ([4]; spiked 50 ng/mL) [%] | Long-term stability Mean ([4]; spiked 250 ng/mL) [%] | Long-term stability Mean ([4]; spiked 500 ng/mL) [%] | also measured
7 | COc1ccc2cc3[n+](cc2c1OC)CCc1cc2c(cc1-3)OCO2 [Analyte 13, berberine] | 5630 ± 2430 | 3800 ± 171 | 619 ± 84.6 | 38.8 ± 53.2 | 8.04 ± 0.88 | 39 ± 46.5 | 8 | double-peaks |  |  |  |  |  |  |  |  |  | Freeze–thaw stability Mean ([2]; spiked 5 ng/mL): 97.72%; Freeze–thaw stability Mean ([2]; spiked 100 ng/mL): 110.44%; Freeze–thaw stability Mean ([2]; spiked 200 ng/mL): 104.87%; Ordinary stability Mean ([3]; spiked 5 ng/mL): 84.57%; Ordinary stability Mean ([3]; spiked 100 ng/mL): 103.56%; Ordinary stability Mean ([3]; spiked 200 ng/mL): 113.97%; Long-term stability Mean ([4]; spiked 5 ng/mL): 102.75%; Long-term stability Mean ([4]; spiked 100 ng/mL): 81.78%; Long-term stability Mean ([4]; spiked 200 ng/mL): 114.48%
8 | COc1cc2c(cc1O)CC[n+]1cc3c(OC)c(OC)ccc3cc1-2 [Analyte 9, jatrorrhizine] | 2550 ± 277 | 1090 ± 110 | 270 ± 24 | 9.65 ± 4.91 | 8.96 ± 0.4 | 10.5 ± 4.72 | 1.83 ± 0.29 |  |  |  |  |  |  |  |  |  |  | Freeze–thaw stability Mean ([2]; spiked 25 ng/mL): 86.77%; Freeze–thaw stability Mean ([2]; spiked 150 ng/mL): 113.07%; Ordinary stability Mean ([3]; spiked 25 ng/mL): 104.79%; Ordinary stability Mean ([3]; spiked 75 ng/mL): 93.01%; Ordinary stability Mean ([3]; spiked 150 ng/mL): 92.51%; Long-term stability Mean ([4]; spiked 25 ng/mL): 80.63%; Long-term stability Mean ([4]; spiked 75 ng/mL): 91.97%; Long-term stability Mean ([4]; spiked 150 ng/mL): 98.06%
